Source: the supplement of paper PMC13207355

Key:
Conditions in all cases: exposure time: 72 h
E13 [1] = patient-derived glioblastoma stem cells of classical subtype; assay: surviving fraction (nuclei count normalised to DMSO); higher = more cells surviving (less toxic)
E21 [2] = patient-derived glioblastoma stem cells of mesenchymal subtype; assay: as above
E28 [3] = patient-derived glioblastoma stem cells of classical subtype; assay: as above
E34 [4] = patient-derived glioblastoma stem cells of proneural subtype; assay: as above
E57 [5] = patient-derived glioblastoma stem cells of mesenchymal subtype; assay: as above
FT3469 [6] = normal neural stem cell line; assay: as above
E13 [7] = assay: phenotypic distance (Euclidean, principal components) from DMSO controls (arbitrary units); higher = stronger morphological change
E21 [8] = assay: as above
E28 [9] = assay: as above
E34 [10] = assay: as above
E57 [11] = assay: as above
FT3469 [12] = assay: as above
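Throughout, for phenotypic distance (Euclidean, principal components) from DMSO controls: cell Painting imaging in 384-well plates, CellProfiler features reduced to at least 20 principal components, Euclidean distance versus same-plate DMSO vehicle wells (0.1% v/v), median over six images per well.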
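Throughout, for surviving fraction (nuclei count normalised to DMSO): nuclei counted by high-content imaging of Hoechst-stained cells in laminin-coated 384-well plates, relative to 0.1% DMSO vehicle wells, with staurosporine as cell-death control.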

Cc1ccc(NC(=O)c2ccc3c(c2)OCCO3)cc1NC(=O)c1ccc2nc(OCCN3CCCC3)ccc2c1
Conditions | phenotypic distance | surviving fraction
E13 [1], 4.1 nM | – | 0.567
E13 [1], 4.11523 nM | – | 0.579
E13 [1], 12.3 nM | – | 0.474
E13 [1], 12.34567901 nM | – | 0.507
E13 [1], 37 nM | – | 0.421
E13 [1], 37.037 nM | – | 0.402
E13 [1], 111.1 nM | – | 0.347
E13 [1], 111.1111111 nM | – | 0.456
E13 [1], 333.3 nM | – | 0.332
E13 [1], 333.333 nM | – | 0.347
E13 [1], 1000 nM | – | 0.2728
E13 [1], 3000 nM | – | 0.245
E13 [7], 4.1 nM | 2.33 | –
E13 [7], 4.11523 nM | 2.3 | –
E13 [7], 12.3 nM | 2.75 | –
E13 [7], 12.34567901 nM | 2.91 | –
E13 [7], 37 nM | 2.97 | –
E13 [7], 37.037 nM | 2.96 | –
E13 [7], 111.1 nM | 2.97 | –
E13 [7], 111.1111111 nM | 2.53 | –
E13 [7], 333.3 nM | 3.19 | –
E13 [7], 333.333 nM | 3.19 | –
E13 [7], 1000 nM | 4.14 | –
E13 [7], 3000 nM | 4.93 | –
E21 [2], 4.1 nM | – | 0.572
E21 [2], 4.11523 nM | – | 0.511
E21 [2], 12.3 nM | – | 0.385
E21 [2], 12.34567901 nM | – | 0.434
E21 [2], 37 nM | – | 0.402
E21 [2], 37.037 nM | – | 0.406
E21 [2], 111.1 nM | – | 0.276
E21 [2], 111.1111111 nM | – | 0.306
E21 [2], 333.3 nM | – | 0.28
E21 [2], 333.333 nM | – | 0.23
E21 [2], 1000 nM | – | 0.235
E21 [2], 3000 nM | – | 0.159
E21 [8], 4.1 nM | 1.96 | –
E21 [8], 4.11523 nM | 2.3 | –
E21 [8], 12.3 nM | 3.3 | –
E21 [8], 12.34567901 nM | 2.79 | –
E21 [8], 37 nM | 4.37 | –
E21 [8], 37.037 nM | 3.31 | –
E21 [8], 111.1 nM | 5.55 | –
E21 [8], 111.1111111 nM | 4.4 | –
E21 [8], 333.3 nM | 4.63 | –
E21 [8], 333.333 nM | 5.16 | –
E21 [8], 1000 nM | 4.03 | –
E21 [8], 3000 nM | 3.92 | –
E28 [3], 4.1 nM | – | 0.547
E28 [3], 4.11523 nM | – | 0.493
E28 [3], 12.3 nM | – | 0.385
E28 [3], 12.34567901 nM | – | 0.432
E28 [3], 37 nM | – | 0.366
E28 [3], 37.037 nM | – | 0.346
E28 [3], 111.1 nM | – | 0.309
E28 [3], 111.1111111 nM | – | 0.32
E28 [3], 333.3 nM | – | 0.309
E28 [3], 333.333 nM | – | 0.242
E28 [3], 1000 nM | – | 0.317
E28 [3], 3000 nM | – | 0.285
E28 [9], 4.1 nM | 2.24 | –
E28 [9], 4.11523 nM | 2.33 | –
E28 [9], 12.3 nM | 3.06 | –
E28 [9], 12.34567901 nM | 2.58 | –
E28 [9], 37 nM | 3.23 | –
E28 [9], 37.037 nM | 2.95 | –
E28 [9], 111.1 nM | 3.14 | –
E28 [9], 111.1111111 nM | 2.92 | –
E28 [9], 333.3 nM | 2.79 | –
E28 [9], 333.333 nM | 3.14 | –
E28 [9], 1000 nM | 2.41 | –
E28 [9], 3000 nM | 2.42 | –
E34 [4], 4.1 nM | – | 0.581
E34 [4], 4.11523 nM | – | 0.432
E34 [4], 12.3 nM | – | 0.436
E34 [4], 12.34567901 nM | – | 0.574
E34 [4], 37 nM | – | 0.548
E34 [4], 37.037 nM | – | 0.385
E34 [4], 111.1 nM | – | 0.505
E34 [4], 111.1111111 nM | – | 0.555
E34 [4], 333.3 nM | – | 0.486
E34 [4], 333.333 nM | – | 0.376
E34 [4], 1000 nM | – | 0.494
E34 [4], 3000 nM | – | 0.464
E34 [10], 4.1 nM | 1.52 | –
E34 [10], 4.11523 nM | 2.43 | –
E34 [10], 12.3 nM | 2.63 | –
E34 [10], 12.34567901 nM | 1.82 | –
E34 [10], 37 nM | 2.02 | –
E34 [10], 37.037 nM | 2.96 | –
E34 [10], 111.1 nM | 2.75 | –
E34 [10], 111.1111111 nM | 2.28 | –
E34 [10], 333.3 nM | 3 | –
E34 [10], 333.333 nM | 3.8 | –
E34 [10], 1000 nM | 2.97 | –
E34 [10], 3000 nM | 3.82 | –
E57 [5], 4.1 nM | – | 0.335
E57 [5], 4.11523 nM | – | 0.321
E57 [5], 12.3 nM | – | 0.23
E57 [5], 12.34567901 nM | – | 0.214
E57 [5], 37 nM | – | 0.296
E57 [5], 37.037 nM | – | 0.268
E57 [5], 111.1 nM | – | 0.215
E57 [5], 111.1111111 nM | – | 0.277
E57 [5], 333.3 nM | – | 0.209
E57 [5], 333.333 nM | – | 0.246
E57 [5], 1000 nM | – | 0.199
E57 [5], 3000 nM | – | 0.17
E57 [11], 4.1 nM | 2.44 | –
E57 [11], 4.11523 nM | 2.93 | –
E57 [11], 12.3 nM | 3.38 | –
E57 [11], 12.34567901 nM | 3.54 | –
E57 [11], 37 nM | 3.19 | –
E57 [11], 37.037 nM | 3.43 | –
E57 [11], 111.1 nM | 3.22 | –
E57 [11], 111.1111111 nM | 3.19 | –
E57 [11], 333.3 nM | 3.67 | –
E57 [11], 333.333 nM | 3.36 | –
E57 [11], 1000 nM | 3.79 | –
E57 [11], 3000 nM | 3.67 | –
FT3469 [6], 4.1 nM | – | 0.613
FT3469 [6], 4.11523 nM | – | 0.62
FT3469 [6], 12.3 nM | – | 0.72
FT3469 [6], 12.34567901 nM | – | 0.67
FT3469 [6], 37 nM | – | 0.636
FT3469 [6], 37.037 nM | – | 0.618
FT3469 [6], 111.1 nM | – | 0.608
FT3469 [6], 111.1111111 nM | – | 0.667
FT3469 [6], 333.3 nM | – | 0.674
FT3469 [6], 333.333 nM | – | 0.615
FT3469 [6], 1000 nM | – | 0.602
FT3469 [6], 3000 nM | – | 0.484
FT3469 [12], 4.1 nM | 2.71 | –
FT3469 [12], 4.11523 nM | 2.72 | –
FT3469 [12], 12.3 nM | 3.04 | –
FT3469 [12], 12.34567901 nM | 2.97 | –
FT3469 [12], 37 nM | 3.5 | –
FT3469 [12], 37.037 nM | 3.59 | –
FT3469 [12], 111.1 nM | 3.07 | –
FT3469 [12], 111.1111111 nM | 3.24 | –
FT3469 [12], 333.3 nM | 4.42 | –
FT3469 [12], 333.333 nM | 3.16 | –
FT3469 [12], 1000 nM | 2.96 | –
FT3469 [12], 3000 nM | 3.35 | –
